Measured values reported in ChEMBL document CHEMBL1201862, “PubChem BioAssay data set” (2004).
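Step 1: Grow cells in 96-well plates. Step 2: Expose to compound for 48 hours at 5 concentrations. Step 3: Interpolate endpoints linearly; if unreached, use highest concentration. GI50 = concentration required for 50% inhibition of growth.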 Active and inactive are the calls of the source. Cut-off read from the data, not from the text of the source: active = GI50 up to about 1.1 µM and inactive = higher.

Legend:
Test in all cases: DTP human tumour cell line panel, 48 h
IGROV-1 = tested on: IGROV-1
HL-60 = tested on: HL-60
SK-OV-3 = tested on: SK-OV-3
KM12 = tested on: KM12
RXF 393 = tested on: RXF 393
SW-620 = tested on: SW-620
SK-MEL-28 = tested on: SK-MEL-28
Hs-578T = tested on: Hs-578T
ACHN = tested on: ACHN
SNB-75 = tested on: SNB-75
OVCAR-8 = tested on: OVCAR-8
NCI/ADR-RES = tested on: NCI/ADR-RES
SN12C = tested on: SN12C
HCC 2998 = tested on: HCC 2998
OVCAR-3 = tested on: OVCAR-3
OVCAR-5 = tested on: OVCAR-5
K562 = tested on: K562
SF-539 = tested on: SF-539
A498 = tested on: A498
CAKI-1 = tested on: CAKI-1

Row | Structure (SMILES) | GI50 (IGROV-1) | GI50 (HL-60) | GI50 (SK-OV-3) | GI50 (KM12) | GI50 (RXF 393) | GI50 (SW-620) | GI50 (SK-MEL-28) | GI50 (Hs-578T) | GI50 (ACHN) | GI50 (SNB-75) | GI50 (OVCAR-8) | GI50 (NCI/ADR-RES) | GI50 (SN12C) | GI50 (HCC 2998) | GI50 (OVCAR-3) | GI50 (OVCAR-5) | GI50 (K562) | GI50 (SF-539) | GI50 (A498) | GI50 (CAKI-1)
1 | Cc1ccc(NC(=O)CC(=O)n2nc(C)c(/N=N/c3ccc(S(=O)(=O)CCOS(=O)(=O)O)cc3)c2C)cc1 | > 100 µM (inactive) | > 100 µM (inactive) | > 100 µM (inactive) | > 100 µM (inactive) | > 100 µM (inactive) | > 100 µM (inactive) | > 100 µM (inactive) | > 100 µM (inactive) | > 100 µM (inactive) | > 100 µM (inactive) | > 100 µM (inactive) | > 100 µM (inactive) | > 10 µM (inactive) | > 100 µM (inactive) | > 100 µM (inactive) | > 100 µM (inactive) | > 100 µM (inactive) | > 100 µM (inactive) | > 100 µM (inactive) | –
2 | Nc1nc(NNc2ccc(Cl)c(Cl)c2)cc(=O)[nH]1 | 28.4 µM (inactive) | 26.4 µM (inactive) | – | 30.8 µM (inactive) | 25.5 µM (inactive) | 22.8 µM (inactive) | 52.1 µM (inactive) | 30.5 µM (inactive) | 35.6 µM (inactive) | – | 44.9 µM (inactive) | 47.5 µM (inactive) | 38.1 µM (inactive) | 19.8 µM (inactive) | 23 µM (inactive) | 43.4 µM (inactive) | 18.9 µM (inactive) | 99.1 µM (inactive) | > 100 µM (inactive) | –
3 | COC(=O)c1ccc(C)cc1C1CN=NC12Cc1cc(C)c(C)cc1C2=O (configuration not stated) | > 100 µM (inactive) | 19.7 µM (inactive) | – | 30.2 µM (inactive) | 31.8 µM (inactive) | 35.6 µM (inactive) | 45.7 µM (inactive) | 46.5 µM (inactive) | 29.5 µM (inactive) | 35.9 µM (inactive) | 65 µM (inactive) | 28.6 µM (inactive) | 42.4 µM (inactive) | 29.8 µM (inactive) | 49.5 µM (inactive) | > 100 µM (inactive) | 27.4 µM (inactive) | 50.6 µM (inactive) | 57.4 µM (inactive) | 79.8 µM (inactive)
4 | Cc1occc1C(=S)Nc1ccc(Cl)c(C(=O)OC(C(C)C)C(C)C)c1 | 15.2 µM (inactive) | 10.8 µM (inactive) | 18.4 µM (inactive) | 12.5 µM (inactive) | 13.3 µM (inactive) | 16.6 µM (inactive) | 12.5 µM (inactive) | 17.6 µM (inactive) | 12.1 µM (inactive) | – | 13.3 µM (inactive) | 9.98 µM (inactive) | 14.9 µM (inactive) | 9.23 µM (inactive) | 13.4 µM (inactive) | 22.6 µM (inactive) | – | 16.4 µM (inactive) | 13.6 µM (inactive) | 17.1 µM (inactive)
5 | Cc1ccc2c(c1)SC1=Nc3sc4cc(C)ccc4[n+]3CN12 | 16.1 µM (inactive) | 2.07 µM (inactive) | 31.8 µM (inactive) | – | 78.5 µM (inactive) | 10.4 µM (inactive) | 13 µM (inactive) | 6.87 µM (inactive) | 30.2 µM (inactive) | 11.4 µM (inactive) | 3.04 µM (inactive) | 34.4 µM (inactive) | 7.16 µM (inactive) | 1.75 µM (inactive) | 1.01 µM (active) | 18.3 µM (inactive) | – | 3.73 µM (inactive) | 11.1 µM (inactive) | –
6 | Cc1c(/C=N/NC(=S)Nc2ccccc2)c(=O)n(-c2ccccc2)n1C | > 100 µM (inactive) | > 100 µM (inactive) | > 100 µM (inactive) | > 100 µM (inactive) | > 100 µM (inactive) | > 100 µM (inactive) | > 100 µM (inactive) | > 100 µM (inactive) | > 100 µM (inactive) | > 100 µM (inactive) | > 100 µM (inactive) | 22.1 µM (inactive) | – | > 100 µM (inactive) | – | – | 31.2 µM (inactive) | > 100 µM (inactive) | 71.4 µM (inactive) | 46.2 µM (inactive)
7 | Cc1ccc(S(=O)(=O)N/N=C/C2(c3ccccc3)c3ccccc3-c3ccccc32)cc1 | 10.5 µM (inactive) | > 100 µM (inactive) | 15.4 µM (inactive) | 7.76 µM (inactive) | 13 µM (inactive) | 15 µM (inactive) | 14.8 µM (inactive) | 14.3 µM (inactive) | 4.94 µM (inactive) | – | 8.97 µM (inactive) | 7.94 µM (inactive) | 11.7 µM (inactive) | 13.3 µM (inactive) | 7.71 µM (inactive) | 12.4 µM (inactive) | 4.56 µM (inactive) | 15.8 µM (inactive) | 18.6 µM (inactive) | 12.6 µM (inactive)
8 | CC12CCC(C(=O)OC1=O)C2(C)C (configuration not stated) | > 100 µM (inactive) | 32.1 µM (inactive) | > 100 µM (inactive) | > 100 µM (inactive) | > 100 µM (inactive) | > 100 µM (inactive) | > 100 µM (inactive) | > 100 µM (inactive) | > 100 µM (inactive) | 82.4 µM (inactive) | > 100 µM (inactive) | > 100 µM (inactive) | > 100 µM (inactive) | > 100 µM (inactive) | > 100 µM (inactive) | > 100 µM (inactive) | > 100 µM (inactive) | > 100 µM (inactive) | > 100 µM (inactive) | –
9 | CC(=O)NNC(=S)N/C=C1/C(=O)Oc2ccccc2C1=O | > 100 µM (inactive) | > 100 µM (inactive) | – | > 100 µM (inactive) | 0.0703 µM (active) | > 100 µM (inactive) | > 100 µM (inactive) | > 100 µM (inactive) | > 100 µM (inactive) | > 100 µM (inactive) | > 100 µM (inactive) | > 100 µM (inactive) | > 100 µM (inactive) | > 100 µM (inactive) | > 100 µM (inactive) | > 100 µM (inactive) | > 100 µM (inactive) | > 100 µM (inactive) | > 100 µM (inactive) | > 100 µM (inactive)
10 | CCCCCCCCCCCCCCCCCCNc1nc(=O)n(C2CC(O)C(COP(=O)(O)OCC3OC(n4ccc(N)nc4=O)C(O)C3O)O2)cc1F (configuration not stated) | 30.3 µM (inactive) | – | 53.6 µM (inactive) | > 100 µM (inactive) | > 100 µM (inactive) | > 100 µM (inactive) | > 100 µM (inactive) | > 100 µM (inactive) | 18.7 µM (inactive) | > 100 µM (inactive) | 4.13 µM (inactive) | 17.9 µM (inactive) | 27 µM (inactive) | 11.8 µM (inactive) | > 100 µM (inactive) | 52.6 µM (inactive) | > 100 µM (inactive) | 32.6 µM (inactive) | 17.2 µM (inactive) | 92.5 µM (inactive)
11 | N#CC12CC(C=O)=C(N)C1(C#N)CC(C=O)=C2N (configuration not stated) | 71.9 µM (inactive) | 23.7 µM (inactive) | > 100 µM (inactive) | 88.9 µM (inactive) | 41.9 µM (inactive) | 49.7 µM (inactive) | 38.5 µM (inactive) | 34 µM (inactive) | > 100 µM (inactive) | 44.4 µM (inactive) | 63.7 µM (inactive) | > 100 µM (inactive) | 74.6 µM (inactive) | 26.5 µM (inactive) | – | > 100 µM (inactive) | 45.9 µM (inactive) | 81.8 µM (inactive) | > 100 µM (inactive) | > 100 µM (inactive)
12 | O=C([O-])Cc1ccccc1.[Na+] [SODIUM PHENYLACETATE] | 597 µM (inactive) | – | > 2000 µM (inactive) | 773 µM (inactive) | 582 µM (inactive) | 804 µM (inactive) | 800 µM (inactive) | 385 µM (inactive) | 1180 µM (inactive) | 776 µM (inactive) | 611 µM (inactive) | 540 µM (inactive) | 23.9 µM (inactive) | 1210 µM (inactive) | 550 µM (inactive) | > 2000 µM (inactive) | 284 µM (inactive) | > 2000 µM (inactive) | 519 µM (inactive) | –
13 | COc1ccc(-c2cc(-c3ccccc3)nc(N)n2)c(O)c1 | 10.6 µM (inactive) | 2.02 µM (inactive) | 7 µM (inactive) | 4.67 µM (inactive) | > 100 µM (inactive) | 5.32 µM (inactive) | > 83.4 µM (inactive) | > 100 µM (inactive) | 21.1 µM (inactive) | 28.8 µM (inactive) | 8.69 µM (inactive) | > 52 µM (inactive) | > 25.3 µM (inactive) | > 100 µM (inactive) | > 49.5 µM (inactive) | > 100 µM (inactive) | 2.19 µM (inactive) | > 100 µM (inactive) | > 100 µM (inactive) | –
14 | COc1ccc2c3c1OC1C34CCN(C)C(C2)C4=CC(I)C1(OC)OC (configuration not stated) | 8.71 µM (inactive) | – | 15 µM (inactive) | 14.4 µM (inactive) | 10.5 µM (inactive) | 2.68 µM (inactive) | 12.1 µM (inactive) | 37 µM (inactive) | 11.3 µM (inactive) | 19.6 µM (inactive) | 4.09 µM (inactive) | 41.5 µM (inactive) | 5.78 µM (inactive) | 10.2 µM (inactive) | 5.87 µM (inactive) | 18.6 µM (inactive) | 2.77 µM (inactive) | 1.79 µM (inactive) | 22.9 µM (inactive) | 12.9 µM (inactive)
15 | O=c1[nH][nH]c(=O)n1Cc1ccccc1Cn1c(=O)[nH][nH]c1=O | > 100 µM (inactive) | > 100 µM (inactive) | > 100 µM (inactive) | > 100 µM (inactive) | > 100 µM (inactive) | > 100 µM (inactive) | > 100 µM (inactive) | > 100 µM (inactive) | > 100 µM (inactive) | > 100 µM (inactive) | > 100 µM (inactive) | > 100 µM (inactive) | > 100 µM (inactive) | – | > 100 µM (inactive) | > 100 µM (inactive) | > 100 µM (inactive) | > 100 µM (inactive) | > 100 µM (inactive) | > 100 µM (inactive)
